Measured values published in patent US7211577B2, “Water-soluble phenylpyridazine derivative and medicine containing the same” (Kowa Co., Ltd., priority 2003, dated 2007).
Where a name gives a salt, the structure may show the parent alone. Read-outs that look alike come from different tables or passages of the source.

Assays:
[1] = test system: interleukin-1β production; test: Inhibitory activity against interleukin-1β production (LPS-stimulated HL-60 cells, ELISA); format: cell-based; conditions: Table 1, lipopolysaccharide 10 μg/mL, culturing for 3 days, read-out: IL-1β production inhibiting activity IC50
Method: Inhibitory Activity Against Interleukin-1β Production
HL-60 cells were cultured for 4 days until confluence on RPMI 1640 medium with 10% fetal bovine serum (FBS) added thereto. The medium was centrifuged. The supernatant was discarded, and the cells were then suspended at 1×10^6 cells/mL on RPMI 1640 medium with 3% FBS, and lipopolysaccharide was added to give a final concentration of 10 μg/mL. The culture was inoculated at 1 mL/well to a 24-well plate. A sample compound was added at 1 μL/well, followed by culturing for 3 days. Three days later, the amount of interleukin-1β in each culture was determined by ELISA. Each IC50 value was determined by a comparison in yield with a control to which no test sample was added.

[2] = Water solubility test; format: physicochemical; conditions: for Solubility (%): purified water, from amount of water required for dissolution; for Dissolution in the added water (in words): 100 mL purified water added
Method: Experiment 2 (Water Solubility Test) Testing Method
Each sample compound was weighed in the amount shown in Table 3, to which purified water was added in 0.05 mL aliquots. The solubility (%) of the compound was determined based on the amount of water required for its dissolution.

[3] = Oral absorbability test on rats and/or mice; format: in vivo; conditions: orally administered to mice and/or rats, as in Experiment 3
From the text: Experiment 4 (Oral Absorbability Test on Rats and/or Mice)
In a similar manner as in Experiment 3, test compounds of Examples 23, 25, 143, 193, 245, 246, 247, 248 and 249 were orally administered to mice and/or rats to test their oral absorbability.

[4] = Oral absorbability test on rats (plasma levels by HPLC); format: in vivo; conditions: male SD rats, oral 10 mg/5 mL/kg, suspension in 0.5% MC, plasma 0.25-8 hours
Method: Experiment 3 (Oral Absorbability Test on Rats)
The compound of Example 83 and the comparative compound 3 were suspended at 2 mg/mL with a 0.5% MC solution in mortars, respectively, and were orally administered to male SD rats at 10 mg/5 mL/kg. Upon elapsed time of 0.25, 0.5, 1, 2, 4, 6 and 8 hours after the administration, blood samples were collected and then centrifuged to provide plasma samples. The plasma levels of the respective compounds were determined by HPLC. […] The compound of Example 83 is, therefore, useful as an orally dosable medicine.

Row | Structure (SMILES) | Solubility (%) [2] [%] | Oral absorbability (FIGS. 2 to 6) [3] | also measured
1 | Cc1ccc(-c2cc(CN(CCO)CCO)c(=O)n(CC(C)C)n2)cc1 [Example 49, 4-N,N-bis(2-hydroxyethyl)aminomethyl-6-(4-methylphenyl)-2-isobutyl-2H-pyridazin-3-one hydrochloride] |  |  | IC50 [1]: 3.53 µM
2 | Cc1cc(-c2cc(CN3CCN(C)CC3)c(=O)n(CC(C)C)n2)ccc1F.Cl.Cl [Example 83, 6-(4-fluoro-3-methylphenyl)-2-isobutyl-4-(4-methyl-1-piperazinyl)methyl-2H-pyridazin-3-one dihydrochloride] |  |  | Oral absorption (plasma levels, FIG. 1) [4]: good absorption
3 | CC(C)Cn1nc(-c2ccc(F)c(F)c2)cc(CN(CCO)CCO)c1=O.Cl [Example 108, 4-N,N-bis(2-hydroxyethyl)aminomethyl-6-(3,4-difluorophenyl)-2-isobutyl-2H-pyridazin-3-one hydrochloride] | >20 |  | IC50 [1]: 3.44 µM
4 | Cc1cc(-c2cc(CN3CCN(C)CC3)c(=O)n(CC=Cc3ccc(Cl)cc3)n2)ccc1F.Cl.Cl [Example 143, 2-(4-chlorocinnamyl)-6-(4-fluoro-3-methylphenyl)-4-(4-methyl-1-piperazinyl)methyl-2H-pyridazin-3-one dihydrochloride] | 10 | good absorbability | melting point: 229.7 to 243.3 °C (dec.)
5 | CSc1ccc(-c2cc(CN3CCN(C)CC3)c(=O)n(CC3CC3)n2)cc1.Cl.Cl [Example 149, 2-cyclopropylmethyl-4-(4-methyl-1-piperazinyl)methyl-6-[4-(methylthio)phenyl]-2H-pyridazin-3-one dihydrochloride] | >10 |  | melting point: 234.6 to 239.2 °C
6 | COc1ccc(-c2cc(CN3CCNCC3)c(=O)n(Cc3ccc(F)cc3)n2)cc1F.Cl.Cl [Example 193, 2-(4-fluorobenzyl)-6-(3-fluoro-4-methoxyphenyl)-4-(1-piperazinyl)methyl-2H-pyridazin-3-one dihydrochloride] | 5 | good absorbability | 
7 | COc1ccc(-c2cc(CN3CCN(C)CC3)c(=O)n(Cc3ccc(F)c(F)c3)n2)cc1F.Cl.Cl [Example 245, 2-(3,4-difluorobenzyl)-6-(3-fluoro-4-methoxyphenyl)-4-(4-methyl-1-piperazinyl)methyl-2H-pyridazin-3-one dihydrochloride] | 10 | good absorbability | 
8 | COc1ccc(-c2cc(CN(C)C)c(=O)n(Cc3ccc(F)c(F)c3)n2)cc1F.Cl [Example 246, 2-(3,4-difluorobenzyl)-4-dimethylaminomethyl-6-(3-fluoro-4-methoxyphenyl)-2H-pyridazin-3-one hydrochloride] | 2 | good absorbability | 
9 | Cc1cc(-c2cc(CN3CCN(C)CC3)c(=O)n(CCCc3ccc(Cl)cc3)n2)ccc1F.Cl.Cl [Example 247, 2-[3-(4-chlorophenyl)propyl]-6-(4-fluoro-3-methylphenyl)-4-(4-methyl-1-piperazinyl)methyl-2H-pyridazin-3-one dihydrochloride] | 10 | good absorbability | 
10 | COc1ccc(-c2cc(CN3CCN(C)CC3)c(=O)n(CC=Cc3ccc(Cl)cc3)n2)cc1F.Cl.Cl [Example 248, 2-(4-chlorocinnamyl)-6-(3-fluoro-4-methoxyphenyl)-4-(4-methyl-1-piperazinyl)methyl-2H-pyridazin-3-one dihydrochloride] | 0.06 | good absorbability | 
11 | COc1ccc(-c2cc(CN3CCN(CCO)CC3)c(=O)n(CC=Cc3ccc(Cl)cc3)n2)cc1F.Cl.Cl [Example 249, 2-(4-chlorocinnamyl)-6-(3-fluoro-4-methoxyphenyl)-4-[4-(2-hydroxyethyl)-1-piperazinyl]methyl-2H-pyridazin-3-one dihydrochloride] | 0.03 | good absorbability | 
12 | CNC(=O)c1cc(-c2ccc(OC)cc2)nn(CC(C)C)c1=O [compound 2, reference compound] | <0.001 |  | Dissolution in the added water (in words) [2]: (insoluble)
13 | COc1ccc(-c2cc(C(=O)O)c(=O)n(C/C=C/c3ccc(Cl)cc3)n2)cc1 [compound 4, reference compound] | <0.001 |  | Dissolution in the added water (in words) [2]: (insoluble)

Continued, in another order:

Row | Solubility (%) [2] [%] | Oral absorbability (FIGS. 2 to 6) [3] | Structure (SMILES) | also measured
14 | 0.8 |  | COc1ccc(-c2cc(CN(C)C)c(=O)n(CC3CC3)n2)cc1F.Cl [Example 14, 2-cyclopropylmethyl-4-dimethylaminomethyl-6-(3-fluoro-4-methoxyphenyl)-2H-pyridazin-3-one hydrochloride] | IC50 ([1]; Homo sapiens, 72 h): 3.61 µM
15 | 10 | good absorbability | COc1ccc(-c2cc(CN(CCO)CCO)c(=O)n(CC3CC3)n2)cc1F.Cl [Example 23, 4-N,N-bis(2-hydroxyethyl)aminomethyl-2-cyclopropylmethyl-6-(3-fluoro-4-methoxyphenyl)-2H-pyridazin-3-one hydrochloride] | IC50 [1]: 0.33 µM
16 | 0.4 | good absorbability | COc1ccc(-c2cc(CN)c(=O)n(CC3CC3)n2)cc1F.Cl [Example 25, 4-aminomethyl-2-cyclopropylmethyl-6-(3-fluoro-4-methoxyphenyl)-2H-pyridazin-3-one hydrochloride] | 
17 | 0.5 |  | CSc1ccc(-c2cc(CN(C)C)c(=O)n(CC3CC3)n2)cc1.Cl [Example 153, 2-cyclopropylmethyl-4-dimethylaminomethyl-6-[4-(methylthio)phenyl]-2H-pyridazin-3-one hydrochloride] | IC50 ([1]; Homo sapiens, 72 h): 0.58 µM; melting point: 230.2 to 232.3 °C
18 | <0.001 |  | CNC(=O)c1cc(-c2ccc(OC)c(F)c2)nn(CC2CC2)c1=O [compound 3, reference compound] | Dissolution in the added water (in words) [2]: (insoluble); Oral absorption (plasma levels, FIG. 1) [4]: no substantial absorption
